From patent publication US7662961B2, “N-phenylpyrazole derivatives as pesticides” (Merial Limited, priority 2004, dated 2010)

Q: Which melting point does the source give for `CN(C(=S)N(C)c1c([S+]([O-])C(F)(F)F)c(C#N)nn1-c1c(Cl)cc(C(F)(F)F)cc1Cl)c1c([S+]([O-])C(F)(F)F)c(C#N)nn1-c1c(Cl)cc(C(F)(F)F)cc1Cl` (stereo not shown) [Compound 01-05, N,N′-Bis[3-cyano-1-(2,6-dichloro-4-trifluoromethylphenyl)-4-trifluoromethylsulfinylpyrazol-5-yl]-N,N′-dimethylthiourea] here?
A: The melting point was 118 °C.
